Source: patent US20220323385A1, “PHARMACEUTICAL COMPOSITION FOR AORTIC ANEURYSM PROPHYLAXIS AND PROCESSED FOOD” (priority 2019, published 2022)

Test system: abdominal aortic aneurysm
Test: rat abdominal aortic aneurysm induction model (catheter inserted in abdominal aorta and ligated, high-fat feed)
Assay type: in vivo, SD-male rats
Conditions: for survival rate (%): Example 2, FIG. 1; for diameter of the aorta in the abdominal aortic aneurysm induction part: Example 2, FIG. 2, control group about 4 mm; for Occurrence not confirmed (Table 4, Rupture rate of abdominal aortic aneurysm): rupture not observed; for Occurrence confirmed (abdominal aortic aneurysm) / Occurrence not confirmed (abdominal aortic aneurysm): number of rats; for Frequency of occurrence (%) (Table 4, Rupture rate of abdominal aortic aneurysm): rupture rate in rats with observed abdominal aortic aneurysms; for Frequency of occurrence (%) (Table 4, Rupture rate of abdominal aortic aneurysm) / Rupture rate (%) of abdominal aortic aneurysm: control group 28.6%; for Rupture rate (%) of abdominal aortic aneurysm: rats with observed abdominal aortic aneurysms
Experimental: SD-male rats of 4 weeks old (70 g to 90 g) were used. Eighteen rats and eight rats were prepared as a control group and a medium chain fatty acid administration group, respectively.
Upon arrival, all rats were preliminarily fed normal feed without additional supplements for one week. Then, the medium chain fatty acid administration group was fed normal feed and forcibly administered with high-content neutral fats (decanoic acid occupied 98% of constituent fatty acids) in an amount of 1,145 mg/kg body-weight/day. The control group was fed normal feed and forcibly administered with water in an amount of 1,145 mg/kg body-weight/day.
In this test, the medium chain fatty acid was fed in the form of tricaprin. Tricaprin is a substance in which decanoic acid (C10), a linear saturated fatty acid having 10 carbon atoms, is bonded to glycerol.
From the second week after the arrival, all rats were fed high-fat feed. Then, the medium chain fatty acid administration group was forcibly administered with the high-content neutral fats in an amount of 1,145 mg/kg body-weight/day. Furthermore, the control group was forcibly administered with water in an amount of 1,145 mg/kg body-weight/day.
Three weeks after the arrival, an abdominal aortic aneurysm induction treatment was performed. In the abdominal aortic aneurysm induction treatment, a catheter is inserted in the rat abdominal aorta and the inserted catheter is ligated with the abdominal aorta. The treatment was performed according to the method disclosed in Patent Literature 3.
After that, for the next four weeks, the control group had been fed the high-fat feed and forcibly administered with water in an amount of 1,145 mg/kg body-weight/day. Furthermore, the medium chain fatty acid administration group had been fed the high-fat feed and forcibly administered with the high-content neutral fats. Then, four weeks after the abdominal aortic aneurysm induction treatment, the rats were euthanized and dissected.
Note that the abdominal aortic aneurysm was determined to have occurred if the blood vessel at the site where the abdominal aortic aneurysm induction treatment was performed dilated to twice or more its original thickness.
Next, test results obtained by using tricaprin (an ester of three decanoic acids and glycerol) and tricaprylin (an ester of three octanoic acids of C8 and glycerol) as the medium chain fatty acid is shown. The animal model preparation method is the same as that in Example 1. A group in which tricaprin (C10) was given is referred to as a tricaprin administration group and a group in which tricaprylin (C8) was given is referred to as a tricaprylin administration group.
Twenty-three, eleven, and eighteen model animals were prepared as a control group, the tricaprylin administration group, and the tricaprin administration group, respectively.
The horizontal axis indicates the number of days (day) from Day 0 when the abdominal aortic aneurysm induction treatment was performed, and the vertical axis indicates the survival rate (%). The survival rate declined on Day 17 in the control, while the survival rate remained 100% until Day 26 in the tricaprylin administration group. […] The tricaprin administration group maintained the 100% survival rate during the test period.
Referring to FIG. 2, the horizontal axis indicates which measurements are from the normal blood vessel and which are from the blood vessel at the abdominal aortic aneurysm induction part; the vertical axis indicates the diameter (mm) of the aorta. The normal blood vessel refers to the normal aorta at the upper and lower sides of the part in which the abdominal aortic aneurysm was induced.

[1] = Example 2, number of rats among rats with observed abdominal aortic aneurysms
[2] = Example 2, 11 rats tricaprylin group, 18 rats tricaprin group
[3] = Example 1, number of rats among rats with observed abdominal aortic aneurysms

SMILES | survival rate (%) (until Day 26 after induction treatment, control declined on Day 17) | diameter of the aorta in the abdominal aortic aneurysm induction part | Frequency of occurrence (%) of abdominal aortic aneurysm (Example 2, control group 30.4%) [%] | Occurrence confirmed (Table 4, Rupture rate of abdominal aortic aneurysm) [1] | Occurrence not confirmed (Table 4, Rupture rate of abdominal aortic aneurysm) [1] | Occurrence confirmed (abdominal aortic aneurysm) [2] | Occurrence not confirmed (abdominal aortic aneurysm) [2] | Frequency of occurrence (%) (Table 4, Rupture rate of abdominal aortic aneurysm) (Example 2) | Frequency of occurrence (%) of abdominal aortic aneurysm (Example 1, 1,145 mg/kg body-weight/day, four weeks after induction treatment, control group 38.9%) [%] | Rapture confirmed (abdominal aortic aneurysm) [3] | Rapture not confirmed (abdominal aortic aneurysm) [3] | Occurrence not confirmed (abdominal aortic aneurysm) (Example 1, 8 rats in group, 1,145 mg/kg body-weight/day forcibly administered, four weeks after induction treatment) | Occurrence confirmed (abdominal aortic aneurysm) (Example 1, 8 rats in group, vessel dilated to twice or more its original thickness, 1,145 mg/kg body-weight/day) | Rupture rate (%) of abdominal aortic aneurysm (Example 1, listed as Medium chain fatty acid) [%] | Rupture rate (%) of abdominal aortic aneurysm (Example 1, listed as medium chain fatty acid) [%] | survival rate (%) (during the test period) | Frequency of occurrence (%) (Table 4, Rupture rate of abdominal aortic aneurysm) (Example 2, listed as tricaprin)
CCCCCCCC(=O)OCC(COC(=O)CCCCCCC)OC(=O)CCCCCCC [Tricaprylin] | 100 | about 3.5 mm | 27.3 | 1 | 2 | 3 | 8 | 33.3 | – | – | – | – | – | – | – | – | –
CCCCCCCCCC(=O)OCC(COC(=O)CCCCCCCCC)OC(=O)CCCCCCCCC [Tricaprin] | – | about 2.2 mm | 5.6 | 0 | 1 | 1 | 17 | 0 | 12.5 | 0 | 1 | 7 | 1 | 0 | 0.0 | 100 | 0.0
